Where no end group is shown, it is not given here.
Assays:
primary CLL cells [1] = experiment: Single cell digital imaging of intracellular Ca2+ (Fura-2); format: cell-based, human
Source text: (§1) Lymphocytes were freshly separated from heparinized peripheral blood obtained from normal adult volunteers or adult patients with chronic lymphocytic leukemia (CLL) meeting standard diagnostic guidelines. Patients had either never received treatment or had received treatment over two years prior to obtaining samples. We conformed to all guidelines and regulations in accordance with Internal Review Board protocols ICC2902/11-02-28 (Case Western Reserve University Cancer Center/University Hospitals of Cleveland Ireland Cancer Center). Cells were separated by centrifugation through Ficoll-Hypaque and suspended in RPMI medium supplemented with 10% fetal bovine serum, L-glutamine (2 mM), and nonessential amino acids (100 μM) at a density of 2 million cells/ml. Normal CD19+ B cells were pooled from healthy individuals between 26 and 32 years of age, in accordance with IRB-approval (as above). Mononuclear cells were separated by Ficoll-Hypaque centrifugation, and further isolation of B and T cells was achieved by magnetic separation using CD19 microbeads (Miltenyi Biotec, Bergisch Gladbach, Germany).
(§2) Methods of Ca^2+ imaging, described in detail previously, were employed here with only minor modification. Briefly, cells adhered to poly-L-lysine-coated coverslips (35-mm coverslip dishes, MatTek Corp., Ashland, Mass.) were loaded with 1 μM Fura-2 AM for 45 min at 25° C. in extracellular buffer (ECB) (130 mM NaCl, 5 mM KCl, 1.5 mM CaCl2, 1 mM MgCl2, 25 mM Hepes, pH 7.5, 1 mg/ml BSA, and 5 mM glucose). The buffer was replaced with fresh ECB and the incubation continued for […] at 25° C. to permit de-esterification. Culture dishes were mounted on the non-heated stage of an inverted microscope (Olympus CKX41) equipped with a 20× Fluor objective. Excitation light was alternated between 340 and 380 nm by a filter wheel (Sutter Instrument Co.), with 0.8 sec and 0.2 sec exposure times respectively, and emitted light was filtered at >510 nm and collected with an intensified charge-coupled device camera (Cooke 12 bit VGA). The video signal was digitized using InCyt Im2 software (Intracellular Imaging) and subsequently processed using Microsoft Excel. To determine Rmin cells were perfused with ECB deficient in Ca^2+ and supplemented with 4 mM EGTA and 10 μM ionomycin. Rmax was obtained by perfusing cells with ECB supplemented with 4 mM CaCl2 and 10 μM ionomycin. […] In most experiments peptides were fused with the cell penetrating peptide of HIV TAT to facilitate uptake by cells. In some experiments peptides, without linkage to TAT, were delivered into cells using Chariot reagent (Active Motif) as previously described. Xestospongin C (Enzo Life Sciences International) and U73122 (Sigma), both dissolved in DMSO, were added to cells […] prior to Ca^2+ measurements.

primary CLL cells [2] = experiment: Apoptosis and cell death assays (trypan blue, propidium iodide, Hoechst nuclear morphology, Annexin V); format: cell-based, human
Source text: as §1, with “Patients had either never received treatment or had received treatment over two years prior to obtaining samples.” left out
Apoptosis was quantified according to apoptotic nuclear morphology and by detection of phosphatidylserine exposure on the plasma membrane. […] Images were obtained using a chargecoupled device camera (Hamamatsu Photonics, Shizuoka, Japan) and digitally converted by Simple PCI software (Hamamatsu Photonics). Membrane translocation of phosphatidylserine was detected by Annexin V staining. Annexin V-positive cells were assessed by flow cytometry using an ARIA flow cytometer (Beckman Coulter, Pasadena, Calif., USA). All flow cytometry data were analyzed using FlowJo 8.8.4 for Macintosh (Treestar, Ashland, Oreg., USA). Dead cells were identified according to their inability to exclude trypan blue dye or propidium iodide. Trypan blue dye uptake into cells was detected by light microscopy using a 40× objective and quantified by counting up to 400 cells. Propidium iodide uptake was quantified by flow cytometry in association with the Annexin V measurement described above.

[3] = test system: IP3R-mediated Ca2+ release inhibited by BH4-Bcl-2; experiment: Unidirectional 45Ca2+-flux assay in permeabilized MEF cells; format: cell-based; details: 40 μM IDPDD/AA, 40 μM BH4-Bcl-2 peptide, 3 μM IP3, FIG. 7
Method: Twelve-well clusters containing MEF cells were fixed on a thermostated plate at 30° C. on a mechanical shaker. The culture medium was aspirated, and the cells were permeabilized by incubating them for 10 min in a solution containing 120 mM KCl, 30 mM imidazole-HCl (pH 6.8), 2 mM MgCl2, 1 mM ATP, 1 mM EGTA and 20 μg/ml saponin. The non-mitochondrial Ca^2+ stores were then loaded for 45 min in 120 mM KCl, 30 mM imidazole-HCl (pH 6.8), 5 mM MgCl2, 5 mM ATP, 0.44 mM EGTA, 10 mM NaN3 and 150 nM free ^45Ca^2+ (28 μCi/ml). Then, 1 ml of efflux medium containing 120 mM KCl, 30 mM imidazole-HCl (pH 6.8) and 1 mM EGTA was added and replaced every 2 min IP3 (3 μM) was added for 2 min after 10 min of efflux. BH4-Bcl2 peptide (40 μM), in the presence or not of IDPDD/AA peptide (40 μM), was added from 4 min before IP3 to 2 min after IP3. At the end of the experiment, all 45Ca^2+ remaining in the stores was released by incubation with 1 ml of a 2% (w/v) sodium dodecyl sulfate solution for 30 min Ca^2+ release was plotted as fractional loss (%/2 min) as a function of time, as previously described.

Bcl-2 = Bcl-2 (Homo sapiens, UniProt P10415); experiment: Biotin-streptavidin pulldown assay; format: binding; details: 200 μM biotin-peptide, lysate of WEHI7.2 cells overexpressing wild type Bcl-2
Chain of Bcl-2 (P10415 whole entry, species assumed): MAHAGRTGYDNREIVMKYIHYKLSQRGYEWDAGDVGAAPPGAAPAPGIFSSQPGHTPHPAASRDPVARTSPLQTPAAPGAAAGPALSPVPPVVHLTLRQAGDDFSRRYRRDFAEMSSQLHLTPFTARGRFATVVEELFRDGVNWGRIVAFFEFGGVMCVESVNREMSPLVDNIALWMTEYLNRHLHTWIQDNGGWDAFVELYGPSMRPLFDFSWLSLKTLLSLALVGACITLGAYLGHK
Method: WEHI7.2 cells overexpressing wild type Bcl-2 were washed twice with PBS and incubated on ice for 30 min in 400 ul CHAPS lysis buffer (50 mM Tris-HCL pH 7.5, 100 mM NaCL, 2 mM EDTA, 1% CHAPS, 50 mM NaF, 1 mM Na3VO4, protease inhibitor cocktail, PhosSTOP). Cell lysates were centrifuged for 15 min at 20,000 g at 4 C and the supernatant (protein concentration 5 mg/ml) was continuously rotated with 200 μM biotin-Scr or biotin-IDPDD/AA, or without peptide, at 4 C for 16 hr. Streptavidin Sepharose beads ([…]) (Pierce Pull-Down Biotinylated Protein:Protein Interaction Kit, Thermo, Cat #21115) were washed three times with tris buffered saline (25 mM Tris.HCL, 0.15M NaCl, pH 7) and then added to 400 μl cell lysate, followed by rotation for 2 hours at 4 C. After this, the beads were washed four times with tris buffered saline, centrifuging for 30-60 second each time. The beads were then incubated for 3-5 min at room temperature with 50 μl elution buffer provided with the Pierce pulldown kit (above) and centrifuged at 1,250×g for 30-60 seconds. The supernatant was boiled in SDS-PAGE sample buffer for 5 min and western blotting for Bcl-2 was performed as described above.

Bcl-2-IP3R interaction = target: T1, Bcl-2-IP3R interaction (Homo sapiens, UniProt P10415); experiment: Co-immunoprecipitation assay; format: binding; details: 200 μM peptide, lysate of WEHI7.2 cells overexpressing wild type Bcl-2
T1 construct: expressed in transfected cells; host or cells: WEHI7.2 (murine T cell lymphoma); IP3R endogenous
T1 sequence (P10415 whole entry): as the sequence (P10415 whole entry, species assumed) above
Method: One hundred million WEHI7.2 cells overexpressing wild type Bcl-2 were washed twice with PBS and then lysed on ice for 30 min in 1 ml CHAPS buffer. The supernatant was prepared by centrifugation for 15 min at 20,000 g at 4° C. The supernatant (1 ml) was mixed with 100 μl 50% protein G in Tris 50 mM pH 7.5 buffer and rotated at 4 C for 2 hrs. After removing the beads, the supernatant was incubated with 200 μM peptide (Scr or IDPDD/AA, or without peptide addition, for 2 hrs at 4° C. Then hamster anti-human Bcl-2 antibody was added (final dilution 1:250) and the supernatant was rotated for 16 hrs at 4 C, followed by rotation in the presence of 50 μl protein G (50% beads) for 2 hours at 4 C. The beads were washed six times with CHAPS buffer and boiled for 5 min in SDS sample buffer followed by resolution of proteins by SDS-PAGE and analysis by western blotting for the IP3R using anti-IP3R antibody (BD Biosciences (Cat #610313) at 1:2,000 dilution and for Bcl-2 as described above.

Jurkat cells = experiment: Single cell digital imaging of intracellular Ca2+ (Fura-2); format: cell-based, human; details: for effect on percentage of cells displaying peptide-induced Ca2+ oscillations: xestospongin C 10 μM, U73122 0.25 μM, peptide 10 μM, 90 min, FIG. 8A
Method: (§3) WEHI7.2 cells were cultured in DMEM supplemented with 10% fetal calf serum, L-glutamine (2 mM), and nonessential amino acids (100 μM). Transfections of WEHI7.2 cells with expression vectors encoding wild type Bcl-2 and Bcl-2RS/GG were described previously. Jurkat cells and RS11846 cells were cultured in RPMI medium supplemented with 10% fetal bovine serum, L-glutamine (2 mM), and nonessential amino acids (100 μM). Cells were maintained in 5% carbon dioxide at high humidity.
as §2

[4] = test system: Bcl-2-positive WEHI7.2 cells; details: data not shown
[5] = test system: Bcl-2-positive WEHI7.2 cells; experiment: Single cell digital imaging of intracellular Ca2+ (Fura-2); format: cell-based, murine
Method: as §3
Methods of Ca^2+ imaging, described in detail previously, were employed here with only minor modification. Briefly, cells adhered to poly-L-lysine-coated coverslips (35-mm coverslip dishes, MatTek Corp., Ashland, Mass.) were loaded with 1 μM Fura-2 AM for 45 min at 25° C. in extracellular buffer (ECB) (130 mM NaCl, 5 mM KCl, 1.5 mM CaCl2, 1 mM MgCl2, 25 mM Hepes, pH 7.5, 1 mg/ml BSA, and 5 mM glucose). The buffer was replaced with fresh ECB and the incubation continued for […] at 25° C. to permit de-esterification. Culture dishes were mounted on the non-heated stage of an inverted microscope (Olympus CKX41) equipped with a 20× Fluor objective. […]

Bcl-XL = Bcl-XL (Homo sapiens, UniProt Q07817); details: read-out: inhibitory concentration of 50% (IC50) for displacing BH3 peptides; cited from earlier work
Chain of Bcl-XL (Q07817 whole entry, species assumed): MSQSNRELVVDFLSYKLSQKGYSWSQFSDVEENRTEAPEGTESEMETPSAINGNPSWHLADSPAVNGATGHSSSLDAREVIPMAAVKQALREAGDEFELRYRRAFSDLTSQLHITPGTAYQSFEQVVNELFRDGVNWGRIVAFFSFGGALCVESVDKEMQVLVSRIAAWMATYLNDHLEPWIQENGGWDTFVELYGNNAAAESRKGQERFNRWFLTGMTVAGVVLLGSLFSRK

Bcl-B = target: T2, Bcl-B (Homo sapiens, UniProt Q9HD36); details: read-out: inhibitory concentration of 50% (IC50) for displacing BH3 peptides; cited from earlier work
T2 sequence (Q9HD36 1-204): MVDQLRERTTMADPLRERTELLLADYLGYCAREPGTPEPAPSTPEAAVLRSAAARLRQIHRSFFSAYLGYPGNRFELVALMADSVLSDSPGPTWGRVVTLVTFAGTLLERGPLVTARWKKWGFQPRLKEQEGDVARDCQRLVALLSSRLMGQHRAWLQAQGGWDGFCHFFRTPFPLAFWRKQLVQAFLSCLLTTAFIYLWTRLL

Bfl-1 = target: T3, Bfl-1 (Homo sapiens, UniProt Q16548); details: read-out: inhibitory concentration of 50% (IC50) for displacing BH3 peptides; cited from earlier work
T3 sequence (Q16548 1-175): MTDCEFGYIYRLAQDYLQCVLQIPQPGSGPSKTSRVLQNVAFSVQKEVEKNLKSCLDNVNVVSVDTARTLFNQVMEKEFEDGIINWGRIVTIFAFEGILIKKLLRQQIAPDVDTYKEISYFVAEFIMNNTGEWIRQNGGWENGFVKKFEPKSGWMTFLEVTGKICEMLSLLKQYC

## CN(C)CCC(CSc1ccccc1)Nc1ccc(S(=O)(=O)NC(=O)c2ccc(N3CCN(Cc4ccccc4-c4ccc(Cl)cc4)CC3)cc2)cc1[N+](=O)[O-] (centres unmarked) [ABT-737, N-[4-[4-(4′-Chloro-biphenyl-2-ylmethyl)-piperazin-1-yl]-benzoyl)-4-(3-dimethylamino-1-phenylsulfanylmethyl-propylamino)-3-nitro-benzenesulfonamide, reference compound]
Primary CLL cells [1]; 2 μM ABT-737, FIG. 11A
  induction of Ca2+ elevation: did not induce Ca^2+ elevation
Primary CLL cells [2]; 2 μM, 24 hr, trypan blue dye uptake, FIG. 11B
  death of CLL cells: 40%

## NVYTEIKCNSLLPLAAIVRV (listed as Homo sapiens) [IDPDD/AA, IDP with DD/AA substitution, without TAT]
[3]
  effect on Bcl-2-imposed inhibition of IP3-induced 45Ca2+ efflux from the ER: reversed
Bcl-2
  interaction with Bcl-2: documented
Bcl-2-IP3R interaction
  disruption of Bcl-2-IP3R interaction: confirmed

## COc1ccc2c(c1)CC[C@@H]1[C@@H]2CC[C@]2(C)[C@@H](NCCCCCCN3C(=O)C=CC3=O)CC[C@@H]12 [U73122]
Jurkat cells
  effect on percentage of cells displaying peptide-induced Ca2+ oscillations: reduced

## RKKRRQRRRGGNVYTEIKCNSLLPLDDIVRV [TAT-IDP]
[4]
  cell viability following treatment: not lost

## C1CCC[C@H]2CCCN3CC[C@@H](CCCCCC[C@@H]4CCCN5CC[C@@H](CC1)O[C@@H]45)O[C@@H]23 [xestospongin C, reference compound]
Jurkat cells
  effect on percentage of cells displaying peptide-induced Ca2+ oscillations: reduced
Primary CLL cells [1]; CLL cells
  effect on Ca2+ responses to TAT-IDP and TAT-IDPDD/AA: inhibited
Primary CLL cells [2]; CLL cells
  effect on apoptosis induction by TAT-IDPDD/AA: inhibited

## IDP: synthetic IP3R-derived peptide, 20 amino acid sequence within the Bcl-2-binding site on the IP3R (RKKRRQRRRGGNVYTEIKCNSLLPLDDIVRV; listed as Homo sapiens)
[5]; 2 μM peptide, 70 min recordings, FIG. 2
  number of Ca2+ spikes observed per cell: very infrequent
[5]; peptide introduced by Chariot peptide uptake reagent, data not shown
  induction of Ca2+ elevations: induced Ca^2+ elevations

## pepstatin A
Jurkat cells; TAT-IDP in Jurkat cells
  effect of pretreatment on amplitude of peptide-induced Ca2+ elevations: significant enhancement
  effect of pretreatment on percentage of cells displaying peptide-induced calcium elevations: slight, but not significant, increase

## Cc1cc2c(C(C)C)c(O)c(O)c(C=O)c2c(O)c1-c1c(C)cc2c(C(C)C)c(O)c(O)c(C=O)c2c1O [Gossypol, 1,6,7,1′,6′,7′-Hexahydroxy-5,5′-diisopropyl-3,3′-dimethyl-[2,2′]binaphthalenyl-8,8′-dicarbaldehyde]
Bcl-XL
  IC50: ~500 nM
Bcl-B
  IC50: ~500 nM
Bfl-1
  IC50: ~500 nM
